This note sets out measurements from US5925667A, “Pyrrolidine derivative, anti-ulcer drug, and antibacterial drug” (Shiseido Co., Ltd., priority 1997, dated 1999).

The test system of data set [1] is isolated gastric fundic gland. As to the kind of experiment: CAP: Acid Secretion Inhibition Test In Vitro ([14C]-aminopyrine uptake test). The data set is classed as cell-based, male Japanese White rabbit. Conditions: Oryctolagus cuniculus; final concentration 10^-5 M, histamine 10^-5 M; read-out: acid secretion inhibitory rate (CAP). The procedure: CAP: Acid Secretion Inhibition Test In Vitro
The acid secretion inhibitory activity in a cell level is studied. It can also be used for studying the mechanism of the effect.
ii-a) Preparation of isolated gastric fundus gland suspension
First, an isolated gastric fundic gland sample was prepared. Namely, a male Japanese White rabbit (2.5 to 3 kg) was anesthetized to death with Nembutal™ and then the abdomen was incised. Immediately thereafter, the stomach was removed and, after its pyloric and cardiac antrum were severed, incised along its greater curvature into two sheets. The gastric contents adhering to the mucosal surface was washed out with ice-cooled PBS (-) and then carefully washed therein. The gastric wall was spread on a cork board with its mucosal surface facing up and the feed and mucus thereon were completely removed with sterile gauze. The mucosa was separated therefrom by a spatula and then collected in ice-cooled PBS (-). After being washed twice with PBS (-), the mucosa was minced into 2-3 mm^3 pieces by scissors. These pieces were further washed twice with a nutrient solution. The nutrient solution comprises 132.4 mM of NaCl, 5.4 mM of KCl, 5 mM of Na2 HPO4.12H2 O, 1 mM of NaH2 PO4.2H2,
1.2 mM of MgSO4, 1 mM of CaCl2, 25 mM of HEPES, 2 mg/ml of glucose, and 1 mg/ml of BSA.
Into 70 ml of the nutrient solution containing 1 mg/ml of collagenase, minced mucosal pieces were dispersed and intensely stirred in a conical flask with a stirrer at 37° C. for 40 to 60 minutes. During this period, 100% O2 was sprayed on the nutrient solution surface and the pH was appropriately measured such that it was immediately adjusted to pH 7.4, when the value was therebelow, with a base. The nutrient solution was added to the reaction solution so as to attain the total amount of about 200 ml. After being filtered through a mesh, the suspension was divisionally introduced into 50 ml centrifuge tubes and left for 15 minutes such that gastric fundic gland was deposited. The supernatant was repeatedly removed by an aspirator, dispersed in the nutrient solution, and then left such that the gastric fundic gland was washed three times. At this time, without using a pipette, the suspension was alternately introduced into two centrifuge tubes so as to effect dispersion. The number of cells was counted under microscope and adjusted to 1.6×10^6 cells/ml.
ii-b) [^14 C]-aminopyrine uptake test.
Then, [^14 C]-aminopyrine uptake test was performed. After an Eppendorf tube was weighed, 10 μl (final concentration: 10^-5 M) of histamine dissolved in the above-mentioned nutrient solution, 10 μl (final concentration: 10^-5 M) of the test compound dissolved in DMSO, and 10 μl (final concentration: 0.05 μCi/ml) of [^14 C]-aminopyrine diluted with the nutrient solution were introduced therein and then 970 μl of the isolated gastric fundic gland suspension prepared above was added thereto. Subsequently, this mixture was shaken at 37° C. for 40 minutes at 125 cycles/minute. After being centrifuged for 30 seconds, 200 μl of its supernatant was collected into a mini-vial, while the rest was removed by an aspirator. The gland pellet was completely dried as the tube with its lid being opened was kept for one night in a drying oven at 80° C. and then the lid was closed and the weight was determined at room temperature. Then 100 μl of 1N KOH was added thereto and the tube with its lid being closed was treated at 60° C. for 1 to 2 hours so as to dissolve the pellet. Then, the contents thereof were transferred to a mini-vial. Into the mini-vial containing the supernatant or gland pellet, 4 ml of Atomlite™ was added and then the radioactivity was measured by a liquid scintillation counter. Here, after the radioactivity of the gland pellet was corrected by using a sample in which 20 mM of NaSCN was added so as to cancel the hydrogen ion concentration gradient, the integration ratio of aminopyrine specifically trapped by the gland pellet was calculated. […]

In the next data set the test system is stress ulcer. Description: WIS: Restraint and Water Immersion Stress-Induced Ulcer Inhibition Test. The data set is classed as in vivo, male Crj:SD or Slc:SD rats. The conditions noted are these: rat; for inhibition in vivo at 100 mg/kg: 100 mg/kg oral, 7 h water immersion stress, read-out: ulcer formation inhibitory rate (WIS). The procedure:
WIS: Restraint and Water Immersion Stress-Induced Ulcer Inhibition Test
The degree of inhibition of the stress ulcer formation is tested.
Male Crj:SD or Slc:SD rats (6 to 7-week-old) were fasted overnight, but allowed free access to water. Each group has 5 to 8 of these rats. The sample compound was dissolved or suspended in an aqueous solution of 0.3% sodium carboxymethylcellulose or 0.05% Tween 80 and then was orally administered (100 mg/10 ml/kg. To a control group, the vehicle was administered. 10 minutes later, the rats were placed in a stress cage and immersed to the level of xipfoid process in a water bath (21° C.) for 7 hours. At the end of the stress, the rats were sacrificed by inhalation of ether or carbon dioxide. Then, the stomach of each was removed, inflated by injecting 10 ml of 5% formalin neutral buffer solution, and immersed in 1% formalin neutral buffer solution for 30 minutes or more to be fixed. The stomach was incised along the greater curvature and then the length of each erosion in the glandular portion was determined under dissecting microscope. The sum of the length of erosions per stomach was defined as ulcer index (UI).
The effect obtained when 100 mg/kg of the sample compound had been administered was expressed as ulcer formation inhibitory rate (%) as follows:
ulcer formation inhibitory rate (%)=(1-(UI in sample group/UI in control group))×100

In a further data set the test system is Slc:ICR mice. Also noted: species or system male Slc:ICR mice. The conditions noted are these: mouse, in vivo. The procedure:
AT: Single Dose Toxicity Pretest
Male Slc:ICR mice (5-week-old) were used. Each group has 3 to 5 mice and each mouse was fasted, but allowed free access to water, for 4 to 5 hours from 9 a.m. in the test day. Then, 2,000 mg/10 ml/kg of the sample compound dissolved or suspended in an aqueous solution of 0.5% sodium carboxymethyl cellulose was orally administered thereto. To a control, only the vehicle was administered. […] The body weight was measured before and after the fasting as well as at the same time everyday. The dead animals were immediately subjected to autopsy and their organs were observed by naked eyes. Also, the living animals were sacrificed with ether or carbon dioxide one week after the administration and then their organs were observed by naked eyes.
The toxicity at the single dose of 2,000 mg/kg of the sample compound was expressed as being classified into 5 levels.
5: Mortality rate is 0%; no toxicity is found at all both in behavior and organs.
4: Mortality rate is 0%; while no toxicity is found in organs, slight toxicity is observed in behavior or body weight increase.
3: While there is a dead animal (though not all the animals are dead), no toxicity is found in organs.
2: Regardless of whether there is a dead animal or not, toxicity is found in organs.
1: All the animals are dead.

Data set [2] is described as follows: MTT: Cell Damaging and Protecting Effect Test. The conditions noted are these: rabbit, gastric mucosa cells, final concentration 10^-4 M, smaller value is better, read-out: cell damaging rate (MTT). The data set is classed as cell-based, male Japanese White rabbit. The text has this:
MTT: Cell Damaging and Protecting Effect Test
It is confirmed that there is no toxicity in cell level. Those having a toxicity in cell level are inappropriate as an anti-ulcer drug.
A male Japanese White rabbit (2.5 to 3 kg) was anesthetized to death by Nembutal™ and, immediately thereafter, its stomach was removed. The greater curvature of the stomach was incised so as to remove the stomach contents therefrom. After the mucosal surface was washed with HBSS (Hanks' Balanced Salt Solution), the stomach in ice-cooled HBSS was transferred to a laboratory. Then, after the pyloric antrum was removed, the gastric corpus mucosa was separated by a spatula and then minced into 2 to 3 mm^3 pieces in BME (Basal Medium Eagle). Thereafer, these pieces were shaken at 120 to 130 cycles/minute for 15 minutes at 37° C. in BME 60 ml containing 280 U/ml of dispase and 30 to 50 U/ml of collagenase. Here, the concentration of collagenase was appropriately changed for each lot in view of the state of cells. The pieces were washed twice with EBSS (Earle's Balanced Salt Solution) containing 1 mM of EDTA and then shaken in MEM (Minimum Essential Medium) containing 1 mM of EDTA at 37° C. for 5 minutes. Subsequently, they were shaken in the dispase and collagenase having the same concentrations as those mentioned above for 15 minutes so as to remove the supernatant and then further shaken at 37° C. for 50 to 60 minutes at 120 to 130 cycles/minute. Then, after being washed twice with HBSS, Ham F12 containing 2% of Ultrocer G™ was used to attain the concentration of 1×10^6 cells/ml. Thus formed suspension was dispensed in each well of a 96-well plate by 200 μl. The plate was incubated in the atmosphere composed of 5% CO2 and 95% air at 37° C. for three days so as to attain a confluent state and then subjected to MTT assay.
The sample compound was dissolved in DMSO so as to attain a concentration of 10^-2 M and then diluted with HBSS containing 2% of Ultrocer G™ so as to attain a final concentration of 10^-4 M. To each group, which 8 wells were used for, 10 μl of MTT reagent was added immediately after 100 μl of the medium in each well was exchanged for same volume of the resulting solution of the sample compound. After being incubated in an atmosphere composed of 5% CO2 and 95% air at 37° C. for 4 hours, thus formed solution was centrifuged and then its supernatant was discarded. Subsequently, 100 μl of 100% ethanol was added to the residue so as to dissolve MTT formazan. Then, the absorbance (OD: 570 to 630) was measured by a microplate reader. This method utilizes a phenomenon in which MTT is changed to MTT formazan only by mitochondria of living cells so as to change color.
The cell damaging or cell protecting effect of the sample compound at the final concentration of 10^-4 M was expressed as cell damaging rate (%) as follows:
cell damaging rate (%)=(1-(absorbance in sample group/absorbance in control group))×100
Accordingly, the smaller value is better in the cell damaging rate.

Molecules are shown by their SMILES.

`CCN1CCCC1CNC(=O)c1cc(OCC=C(C)C)cc(OCC=C(C)C)c1` (stereo not shown) [Example 8, 1-ethyl-2-(3,5-diprenyloxybenzoylaminomethyl)pyrrolidine]: the inhibition at 10 µM in data set [1] was determined as 100%. Further, in the data set with stress ulcer, the inhibition in vivo at 100 mg/kg came to 81%. The “toxicity at single dose (AT), 5 levels” value with Slc:ICR mice came to 5.
Regarding `CCN1CCCC1CNC(=O)c1cccc(OC)c1OC/C=C(\C)CCC=C(C)C` (stereo not shown) [Example 17, 1-ethyl-2-(2-geranyloxy-3-methoxybenzoylaminomethyl)pyrrolidine], in data set [1], the inhibition at 10 µM came out at 100%. In addition, in the data set with stress ulcer, the inhibition in vivo at 100 mg/kg was 82%. Also, in data set [2], the cytotoxicity at 4 h, 100 µM worked out at 22%.
Taken in the same sequence, the figures for `CCN1CCCC1CNC(=O)c1cc(OC)c(OC)c(OCC=C(C)C)c1` (stereo not shown) [Example 23, 1-ethyl-2-(3,4-dimethoxy-5-prenyloxybenzoylaminomethyl)pyrrolidine] were 73.1%, 79% and -3%.
For `CCN1CCCC1CNC(=O)c1cc(OC/C=C(\C)CCC=C(C)C)cc(OC/C=C(\C)CCC=C(C)C)c1` (stereo not shown) [Example 12, 1-ethyl-2-(3,5-digeranyloxybenzoylaminomethyl)pyrrolidine], in that order: 100%, 82% and 29%.
Turning to `CCN1CCCC1CNC(=O)c1ccccc1SC/C=C(\C)CCC=C(C)C` (stereo not shown) [Example 14, 1-ethyl-2-(2-geranylthiobenzoylaminomethyl)pyrrolidine], the inhibition at 10 µM in data set [1] was determined as 98.1%. The inhibition in vivo at 100 mg/kg with stress ulcer was determined as 81%. The “anti-ulcer effect (in words)” value in the data set with stress ulcer (in vivo) is given as “the effect has been maintained”. The cytotoxicity at 4 h, 100 µM in data set [2] stood at 27%.
Turning to `CCN1CCCC1CNC(=O)c1ccc(OC/C=C(\C)CCC=C(C)C)c(OC)c1` (stereo not shown) [Example 16, 1-ethyl-2-(4-geranyloxy-3-methoxybenzoylaminomethyl)pyrrolidine], in data set [1], the inhibition at 10 µM was determined as 99.8%. Besides, the inhibition in vivo at 100 mg/kg with stress ulcer was found to be 72%. The “toxicity at single dose (AT), 5 levels” value in the data set with Slc:ICR mice worked out at 4.
`CCN1CCCC1CNC(=O)c1ccc(OC/C=C(/C)CCC=C(C)C)cc1` (stereo not shown) [Example 4, 1-ethyl-2-(4-neryloxybenzoylaminomethyl)pyrrolidine]: the inhibition at 10 µM in data set [1] is 100%. Further, in the data set with stress ulcer, the inhibition in vivo at 100 mg/kg amounted to 68%. The “toxicity at single dose (AT), 5 levels” value in the data set with Slc:ICR mice amounted to 5.
